Entries after “also recorded” stand apart in the source; their conditions may differ. Residues, ends and D or L forms follow the SMILES beside them.

Data set [1] concerns depolarization-induced Ca2+ influx in hippocampal neurons. Put plainly: Fura-2 calcium imaging of hippocampal neurons. Format: cell-based, rat. Conditions: expressed from plasmid; KCl 30 mM; Fura-2AM. The procedure:
Referring now to FIG. 19. Overexpressed CBD3 or TAT-CBD3 reduces Ca^2+ influx predominantly via N-Type Ca^2+ channels. (FIGS. 19.A and 19.B) hippocampal neurons cultured for 5 days in vitro were transfected with DNA constructs encoding CBD3 or a scramble sequence using Lipofectamine, and then loaded with the ratiometric Ca^2+-sensitive dye Fura-2AM (3 μM). Changes in [Ca^2+]c, in response to plasma membrane depolarization with potassium chloride (KCl, 30 mM), were recorded using time-lapse, wide-field fluorescence microscopy. […] In both panels, n indicates the number of neurons from which Fura-2 fluorescence was recorded. […] (FIG. 19.D) Ca^2+ influx was monitored in DRG neurons using Fura-2AM. […] Changes in the Fura-2 F340/F380 were monitored for 10 min following stimulation with 45 mM KCl. […]
Isolation and maintenance of primary hippocampal neurons for calcium imaging. […] For fluorescence measurements, neurons were plated on glass-bottomed Petri dishes without preplated glia as previously described. […]
Calcium imaging. […] Osmolarity of the solutions was measured with the osmometer Osmette II™ (Precision Systems Inc., Natick, Mass.). […] Fluorescence was recorded through a 505 nm dichroic mirror at 535±25 nm. The fluorescence images were taken every 5 seconds during the time-course of the experiment using the minimal exposure time that provided acceptable image quality. […]

Data set [2] deals with anxiety-associated behavior. The data set is described as follows: Elevated plus maze (EPM). Format: in vivo, C57BL6 mice. Conditions: for Elevated Plus Maze: Closed arm entries / Elevated Plus Maze: Closed arm latency to enter / Elevated Plus Maze: Closed arm latency to exit / Elevated Plus Maze: Open arm entries / Elevated Plus Maze: Open arm latency to enter / Elevated Plus Maze: Open arm latency to exit: C57BL6 mice, 1 h after injection, 5 min test.

The subject of data set [3] is anxiety-associated behavior. Put plainly: Light-Dark Box test (LDBT). Format: in vivo, C57BL6 mice. Conditions: for Light-Dark Box: Dark box latency to exit / Light-Dark Box: Light box entries: C57BL6 mice, 1 h after injection, 5 min test. The procedure:
The light-dark box test and the elevated plus maze were used as measures of anxiety-associated behaviors. The tail suspension test was performed to evaluate despair- and depression-associated behavior. Anxiety-behavior testing Anxiety occurs when there is conflict between risk and reward. The Light-Dark Box test (LDBT) and the elevated plus maze (EPM) are accepted tests of anxiety-associated behavior that assess the conflict mice have against hiding in enclosed dark areas (i.e., dark box or closed arm) and their tendency to explore novel environments (i.e., white box or open arm). Lalonde, R. & Strazielle, C. […] J. Neurosci. Methods. 171, 48-52 (2008). These tests are also sensitive to anxiolytic drug treatments. Light-Dark Box test as a measure of anxiety-associated behavior. For the light-dark box test (LDBT), there were two adjoined light and dark compartments boxes with a 7 cm square opening to allow mice to move between them. The black box was covered (20 cm×40 cm×30 cm height) and the white box (20 cm×40 cm×30 cm height) was open and illuminated (40 W). Each mouse was placed into the white compartment and the white compartment was video recorded for later analyses using ANY-maze software (version 4.75, Stoelting, Wood Dale, Ill.) which is a video tracking system designed to automate testing in behavioral experiments. The main parameters were duration of time spent in the light box; the latency to enter the dark box; and the number of transitions between the light and dark box.

Data set [4] is described as follows: Biodistribution after i.p. injection (dot blot, FITC fluorescence). To be noted: 25 mg/kg i.p.

Turning to ARSRLAELRGVPRGL (CBD3), the depolarization-induced calcium influx entry in data set [1] was “reduced depolarization-induced calcium influx; also recorded: blocked depolarization-induced calcium signaling”.
Turning to `CC(C)C[C@H](NC(=O)CNC(=O)[C@H](CCCNC(=N)N)NC(=O)[C@@H]1CCCN1C(=O)[C@@H](NC(=O)CNC(=O)[C@H](CCCNC(=N)N)NC(=O)[C@H](CC(C)C)NC(=O)[C@H](CCC(=O)O)NC(=O)[C@H](C)NC(=O)[C@H](CC(C)C)NC(=O)[C@H](CCCNC(=N)N)NC(=O)[C@H](CO)NC(=O)[C@H](CCCNC(=N)N)NC(=O)[C@H](C)NC(=O)[C@H](CCCNC(=N)N)NC(=O)[C@H](CCCNC(=N)N)NC(=O)[C@H](CCCNC(=N)N)NC(=O)[C@H](CCC(N)=O)NC(=O)[C@H](CCCNC(=N)N)NC(=O)[C@H](CCCNC(=N)N)NC(=O)[C@H](CCCCN)NC(=O)[C@H](CCCCN)NC(=O)[C@H](CCCNC(=N)N)NC(=O)CNC(=O)[C@@H](N)Cc1ccc(O)cc1)C(C)C)C(=O)O` [TAT-CBD3] (H-YGRKKRRQRRRARSRLAELRGVPRGL-OH; N-terminus and C-terminus assumed), in data set [2] (0.1 mg/kg i.p.), the “Elevated Plus Maze: Closed arm entries” value amounted to 19.1 ± 1.4, the “Elevated Plus Maze: Closed arm latency to enter” value was 4.5 ± 2.2 s, the “Elevated Plus Maze: Closed arm latency to exit” value came out at 14.9 ± 2.9 s and the “Elevated Plus Maze: Open arm entries” value amounted to 13.6 ± 1.6. In addition, in data set [2] (0.1 mg/kg i.p.), the “Elevated Plus Maze: Open arm latency to enter” value stood at 10.3 ± 2.7 s and the “Elevated Plus Maze: Open arm latency to exit” value was determined as 17.7 ± 2.5 s. In addition, in data set [2] (1 mg/kg i.p.), the “Elevated Plus Maze: Closed arm entries” value is on record as 26.4 ± 4.2, the “Elevated Plus Maze: Closed arm latency to enter” value is 2.4 ± 2.1 s, the “Elevated Plus Maze: Closed arm latency to exit” value stood at 11.1 ± 2.6 s and the “Elevated Plus Maze: Open arm entries” value is 19.7 ± 3.1. Further, in data set [2] (1 mg/kg i.p.), the “Elevated Plus Maze: Open arm latency to enter” value worked out at 10.1 ± 2.9 s and the “Elevated Plus Maze: Open arm latency to exit” value came out at 16.4 ± 3.1 s. Moreover, in data set [2] (10 mg/kg i.p.), the “Elevated Plus Maze: Closed arm entries” value worked out at 27.4 ± 7.0, the “Elevated Plus Maze: Closed arm latency to enter” value is listed as 5.3 ± 2.2 s, the “Elevated Plus Maze: Closed arm latency to exit” value was 10.6 ± 3.5 s and the “Elevated Plus Maze: Open arm entries” value is listed as 20.0 ± 6.1. In data set [2] (10 mg/kg i.p.), the “Elevated Plus Maze: Open arm latency to enter” value came to 4.6 ± 1.9 s and the “Elevated Plus Maze: Open arm latency to exit” value came out at 11.1 ± 2.1 s. Also, in data set [2] (any dose, compared to TAT-Scramble), the “EPM time in and entries into open/closed arms” value is listed as “neither time spent in the open or closed arms, nor frequency of entries into the open nor closed arms were altered”. For the same compound, the “LDBT number of transitions between the light and dark box” value in data set [3] (1 mg/kg, compared to TAT-Scramble) is on record as “increased”. Moreover, in data set [3] (0.1 mg/kg i.p.), the “Light-Dark Box: Dark box latency to exit” value came to 66.0 ± 17.3 s and the “Light-Dark Box: Light box entries” value turned out to be 10.6 ± 1.2. Further, in data set [3] (1 mg/kg i.p.), the “Light-Dark Box: Dark box latency to exit” value is given as 36.9 ± 5.8 s and the “Light-Dark Box: Light box entries” value was 13.5 ± 1.1. In data set [3] (10 mg/kg i.p.), the “Light-Dark Box: Dark box latency to exit” value worked out at 49.5 ± 9.6 s and the “Light-Dark Box: Light box entries” value was 11.5 ± 1.2. Besides, the “tissue distribution (dot blot, anti-TAT antibody)” value in data set [4] (15 min post-injection) is “detected in spleen and largely concentrated in lumbar dorsal root ganglion (DRG) and lumbar section of the spinal cord”. The “tissue distribution (dot blot, anti-TAT antibody)” value in data set [4] (1 h post-injection) is “also detected in kidney, brain, spinal cord and was abundant in the DRG”.

Source of the values: US9018173B2, “Materials and methods for suppressing inflammatory and neuropathic pain” (Indiana University Research and Technology Corp., priority 2010, dated 2015).
